Experimental data published in ChEMBL document CHEMBL4028821, “Synthesis and structure-activity relationship study of pyrazolo[3,4-d]pyrimidines as tyrosine kinase RET inhibitors” (Bioorg Med Chem Lett, 2017).

What was measured:
BaF3 = assay: Antiproliferative activity against mouse BAF3 cells harboring CCDC6-RET fusion protein after 72 hrs by CCK8 assay; conditions: BaF3, 72 h
[1] = biological target: Proto-oncogene tyrosine-protein kinase receptor Ret (Homo sapiens, UniProt P07949); assay: Inhibition of recombinant RET (unknown origin) using poly (Glu,Tyr) 4:1 substrate after 60 mins by ELISA
Chain of Proto-oncogene tyrosine-protein kinase receptor Ret (P07949 whole entry, the tested form may be a part): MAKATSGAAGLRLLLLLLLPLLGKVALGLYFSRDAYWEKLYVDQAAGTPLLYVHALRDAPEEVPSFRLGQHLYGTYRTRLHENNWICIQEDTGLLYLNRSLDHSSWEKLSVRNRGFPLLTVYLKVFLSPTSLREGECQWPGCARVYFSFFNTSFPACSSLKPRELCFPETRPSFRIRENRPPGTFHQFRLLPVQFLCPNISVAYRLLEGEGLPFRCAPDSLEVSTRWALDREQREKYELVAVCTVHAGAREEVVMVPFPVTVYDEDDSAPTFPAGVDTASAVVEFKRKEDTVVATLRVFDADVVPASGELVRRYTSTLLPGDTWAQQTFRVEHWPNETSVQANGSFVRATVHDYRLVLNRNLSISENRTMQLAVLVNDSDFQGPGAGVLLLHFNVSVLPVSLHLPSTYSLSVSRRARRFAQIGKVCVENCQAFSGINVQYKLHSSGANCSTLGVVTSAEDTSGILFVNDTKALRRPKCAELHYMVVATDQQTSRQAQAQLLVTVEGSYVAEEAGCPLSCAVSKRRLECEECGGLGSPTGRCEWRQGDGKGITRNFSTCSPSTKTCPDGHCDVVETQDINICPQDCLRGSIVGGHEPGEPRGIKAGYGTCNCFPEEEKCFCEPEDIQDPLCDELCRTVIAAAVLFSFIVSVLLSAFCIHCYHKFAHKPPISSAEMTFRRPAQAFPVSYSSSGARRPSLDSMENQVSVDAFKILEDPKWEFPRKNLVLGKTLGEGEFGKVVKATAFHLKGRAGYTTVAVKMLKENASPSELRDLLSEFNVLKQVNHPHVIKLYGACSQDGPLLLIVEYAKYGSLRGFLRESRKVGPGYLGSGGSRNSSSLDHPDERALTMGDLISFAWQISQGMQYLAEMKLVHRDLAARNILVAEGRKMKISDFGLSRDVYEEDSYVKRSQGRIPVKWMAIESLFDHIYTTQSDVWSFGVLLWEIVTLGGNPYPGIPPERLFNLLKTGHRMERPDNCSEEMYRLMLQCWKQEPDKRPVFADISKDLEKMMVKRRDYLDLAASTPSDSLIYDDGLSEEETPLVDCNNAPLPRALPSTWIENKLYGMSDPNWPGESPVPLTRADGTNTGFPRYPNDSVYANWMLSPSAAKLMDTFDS

[2] = biological target: Proto-oncogene tyrosine-protein kinase receptor Ret (Mus musculus) (UniProt P35546); assay: Inhibition of RET phosphorylation in mouse BAF3 cells harboring CCDC6-RET fusion protein after 2 hrs by Western blot method; format: cell-based
Chain of Proto-oncogene tyrosine-protein kinase receptor Ret (Mus musculus) (P35546 whole entry, the tested form may be a part): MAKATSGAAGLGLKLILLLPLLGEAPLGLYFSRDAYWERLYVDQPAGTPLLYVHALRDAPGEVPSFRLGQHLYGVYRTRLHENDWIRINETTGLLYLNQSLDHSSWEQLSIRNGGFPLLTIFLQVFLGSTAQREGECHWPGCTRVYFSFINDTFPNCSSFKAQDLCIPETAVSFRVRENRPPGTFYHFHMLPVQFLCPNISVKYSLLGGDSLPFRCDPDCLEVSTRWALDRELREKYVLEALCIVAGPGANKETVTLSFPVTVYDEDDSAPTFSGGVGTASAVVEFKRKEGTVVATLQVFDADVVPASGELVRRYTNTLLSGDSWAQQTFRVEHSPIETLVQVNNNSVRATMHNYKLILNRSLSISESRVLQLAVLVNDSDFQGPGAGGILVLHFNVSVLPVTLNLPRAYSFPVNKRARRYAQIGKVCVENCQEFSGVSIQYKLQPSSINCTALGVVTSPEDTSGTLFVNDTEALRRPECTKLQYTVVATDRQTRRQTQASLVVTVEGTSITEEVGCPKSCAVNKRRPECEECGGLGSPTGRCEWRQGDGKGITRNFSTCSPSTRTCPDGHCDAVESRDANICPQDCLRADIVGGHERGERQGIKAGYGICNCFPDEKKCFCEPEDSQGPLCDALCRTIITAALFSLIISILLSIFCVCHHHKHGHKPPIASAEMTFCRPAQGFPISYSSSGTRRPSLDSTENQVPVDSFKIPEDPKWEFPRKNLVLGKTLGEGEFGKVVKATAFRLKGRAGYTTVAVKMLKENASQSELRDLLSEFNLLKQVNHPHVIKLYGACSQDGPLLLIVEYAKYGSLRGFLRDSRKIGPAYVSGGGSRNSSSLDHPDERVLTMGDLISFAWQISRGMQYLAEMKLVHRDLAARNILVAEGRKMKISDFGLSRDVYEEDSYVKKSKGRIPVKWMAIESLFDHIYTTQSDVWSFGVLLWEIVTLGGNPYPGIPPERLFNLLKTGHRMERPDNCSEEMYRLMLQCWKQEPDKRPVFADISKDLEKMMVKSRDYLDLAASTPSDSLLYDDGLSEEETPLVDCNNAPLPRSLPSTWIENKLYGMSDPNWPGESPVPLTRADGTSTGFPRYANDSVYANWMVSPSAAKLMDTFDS

[3] = biological target: Proto-oncogene tyrosine-protein kinase receptor Ret (Mus musculus) (UniProt P35546); assay: Inhibition of RET in mouse BAF3 cells harboring CCDC6-RET fusion protein assessed as suppression of STAT3 phosphorylation after 2 hrs by Western blot method; format: cell-based
[4] = biological target: Proto-oncogene tyrosine-protein kinase receptor Ret (Mus musculus) (UniProt P35546); assay: Inhibition of RET in mouse BAF3 cells harboring CCDC6-RET fusion protein assessed as suppression of AKT phosphorylation after 2 hrs by Western blot method; format: cell-based
[5] = biological target: Proto-oncogene tyrosine-protein kinase receptor Ret (Mus musculus) (UniProt P35546); assay: Inhibition of RET in mouse BAF3 cells harboring CCDC6-RET fusion protein assessed as suppression of RET phosphorylation after 2 hrs by Western blot method; format: cell-based
[6] = biological target: Vascular endothelial growth factor receptor 2 (Homo sapiens, UniProt P35968); assay: Inhibition of VEGFR2 (unknown origin) at 1 uM
Chain of Vascular endothelial growth factor receptor 2 (P35968 whole entry): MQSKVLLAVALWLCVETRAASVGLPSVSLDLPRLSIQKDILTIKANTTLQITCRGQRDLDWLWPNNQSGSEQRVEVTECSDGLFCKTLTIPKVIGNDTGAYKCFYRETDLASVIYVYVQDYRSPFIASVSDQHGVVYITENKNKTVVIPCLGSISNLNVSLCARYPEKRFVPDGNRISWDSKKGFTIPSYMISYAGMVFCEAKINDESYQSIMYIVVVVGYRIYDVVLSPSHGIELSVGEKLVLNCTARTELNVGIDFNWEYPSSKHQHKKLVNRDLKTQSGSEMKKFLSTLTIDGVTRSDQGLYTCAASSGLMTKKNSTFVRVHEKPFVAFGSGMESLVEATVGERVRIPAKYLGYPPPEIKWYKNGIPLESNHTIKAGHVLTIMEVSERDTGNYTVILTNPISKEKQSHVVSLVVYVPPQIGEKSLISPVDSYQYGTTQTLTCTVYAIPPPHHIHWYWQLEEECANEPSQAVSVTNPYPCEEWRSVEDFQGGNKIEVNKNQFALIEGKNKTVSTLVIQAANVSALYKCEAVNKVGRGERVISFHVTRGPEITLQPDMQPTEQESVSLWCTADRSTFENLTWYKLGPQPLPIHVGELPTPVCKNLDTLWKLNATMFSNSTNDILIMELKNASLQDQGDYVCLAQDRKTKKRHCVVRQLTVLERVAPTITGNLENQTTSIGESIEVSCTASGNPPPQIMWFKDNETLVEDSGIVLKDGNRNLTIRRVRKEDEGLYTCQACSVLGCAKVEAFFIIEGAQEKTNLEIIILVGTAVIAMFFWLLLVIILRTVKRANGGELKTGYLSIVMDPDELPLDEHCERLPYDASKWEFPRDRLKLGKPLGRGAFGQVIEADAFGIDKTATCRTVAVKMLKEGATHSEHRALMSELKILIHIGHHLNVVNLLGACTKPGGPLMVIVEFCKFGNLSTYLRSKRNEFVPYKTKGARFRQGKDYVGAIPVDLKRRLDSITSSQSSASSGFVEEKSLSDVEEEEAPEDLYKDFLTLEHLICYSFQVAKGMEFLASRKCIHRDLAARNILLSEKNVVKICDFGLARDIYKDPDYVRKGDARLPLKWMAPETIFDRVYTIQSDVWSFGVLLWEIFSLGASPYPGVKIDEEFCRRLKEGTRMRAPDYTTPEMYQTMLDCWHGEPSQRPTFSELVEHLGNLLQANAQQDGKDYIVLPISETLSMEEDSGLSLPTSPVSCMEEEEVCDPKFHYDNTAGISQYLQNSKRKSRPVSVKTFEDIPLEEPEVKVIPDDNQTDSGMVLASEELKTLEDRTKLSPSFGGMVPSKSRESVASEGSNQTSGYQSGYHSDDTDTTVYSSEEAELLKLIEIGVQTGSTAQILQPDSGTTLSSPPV

IC50 (BaF3) [nM] | IC50 [1] [nM] | inhibition [2] | inhibition [3] | inhibition [4] | inhibition [5] | inhibition (INH) [6] | SMILES
454 |  |  |  |  |  |  | CC(C)n1nc(-c2cc(CO)on2)c2c(N)ncnc21
> 1000 | 56.5 |  |  |  |  |  | CC(C)n1nc(C#Cc2ccccc2)c2c(N)ncnc21
433 |  | Dose-dependent effect | Dose-dependent effect | Dose-dependent effect | Dose-dependent effect | Not Active | CC(O)c1cc(-c2nn(C(C)C)c3ncnc(N)c23)no1 (centres undefined)
